Patent US20230357349A1, “GLUCAGON DELIVERY VIA ENZYMATIC ACTUATION” (University of Notre Dame du Lac, priority 2022, published 2023)
Peptide text beside a SMILES is read from it. * marks the point of attachment. Palmitoyl = CCCCCCCCCCCCCCCC(=O)*; Decanoyl = CCCCCCCCCC(=O)*

Tests used:
[1] = in vivo; cited from earlier work
[2] = pH-dependent release of encapsulated 3 kDa FITC-dextran to screen PA sequences; format: physicochemical; conditions: 3 kDa FITC-dextran release; pH 7 minus pH 5 at 5 hr
Description: GOx conversion of physiological levels of glucose to yield gluconic acid can lead to a microenvironmental pH in the range of ˜4-5.6. Accordingly, a molecular design was envisioned bearing the typical saturated alkyl chain and β-sheet-forming sequence coupled to glutamic acid as the hydrophilic domain; the pKa of its carboxylate R-group (˜4.5) can shift upward in the range of 4.5-6 due to aggregation effects from PA self-assembly. […] Different PA sequences were synthesized to vary the alkyl tail length (C10 and C16) and valine (V)-alanine (A) β-sheet sequence (V2A2, VA3, A2) with a conserved hydrophilic head group (E2). The intention of screening this small set of molecules was to probe pH-responsive release to determine the optimal balance of attractive and repulsive forces required for the envisioned application of assembly at normal glucose (i.e., low pH actuated by GOx) but disassembly and glucagon release in low glucose conditions (i.e., neutral-buffered physiological pH). […] The selected sequence has a shorter C10 alkyl segment than commonly used in most reported PA materials. The V2A2 sequence is thought to be effective for β-sheet hydrogen bonding, while still being shorter than most commonly explored sequences. […] Thus, a reduction in cohesive forces from a shorter alkyl segment and a 4-residue β-sheet forming segment was thought to enable more rapid responsiveness dependent on the charge state of the glutamic acid residues.
Hydrogels were prepared in all cases in a pH 5 buffer at 1% w/v to ensure initial gelation. […] It is noted that catalase was added to these formulations in order to catalyze the conversion of the toxic GOx byproduct, H2O2, into H2O and O2 in advance of in vivo application, as is commonly done to reduce toxicity for other GOx-based glucose-responsive materials.

[3] = system: Streptozotocin (STZ) diabetic mice; experiment: Prophylactic hypoglycemia prevention after insulin overdose in diabetic mice
Protocol: To assess the ability of this technology to act in a preventative role to limit the onset and severity of hypoglycemia, a mouse model was established. Male C57BL6/J mice, aged 8 weeks, were induced to be diabetic by the destruction of pancreatic β-cells using a single intraperitoneal (i.p.) injection of streptozotocin (STZ, Cayman Chemical) at a dose of 150 mg/kg, according to published dosing protocols. […] Insulin-deficient diabetes was verified at 9-13 days following STZ treatment using handheld blood glucose meters (CVS brand) to ensure unfasted blood glucose (BG) levels of 600+ mg/dL. These glucometers measure blood glucose values in the range of 20-600 mg/dL. For convention in presenting data, values of “high” are plotted as 600 mg/dL, while values of “low” are plotted as 20 mg/dL.
Mice were fasted overnight for a period of 9 h, after which time BG was again measured. Mice having a fasted BG<450 mg/dL were triaged and removed from further study. Remaining mice were dosed with basal insulin detemir (Levemir®, Novo Nordisk) via subcutaneous (s.c.) injection at a dose of 0.5 IU/kg in a total injection volume of 100 μL. […] This material formulation was verified to be stable following extrusion through a syringe into a pH 7 buffer containing 100 mg/dL glucose. Blood glucose was monitored serially following treatment, which for purposes of data visualization was set as t=0 min. At 2 h following administration of treatments, hypoglycemia was induced by i.p. injection of AOF recombinant human insulin (Gibco) at a dose of ˜2.5 IU/kg in 100 μL of saline. BG levels were monitored for an additional 3 h after insulin overdose to monitor the onset of, and recovery from, hypoglycemia. […] In total n=9 mice per group were assessed by these methods, performing all treatments in two separate experiments on different mouse cohorts at different times and combining the data for analysis here. Mice were fasted for the duration of the study but had continuous access to water. […] Statistical testing between treatment and control groups was performed using one-way ANOVA with Tukey multiple comparison post-hoc testing (GraphPad Prism v9.0).
STZ mice were fasted to increase sensitivity to both insulin and glucagon and limit confounding data arising from variable eating patterns. After a 9 h fast, basal insulin detemir (Novo Nordisk, Levemir®) was administered to correct blood glucose to within the normoglycemic range for a healthy mouse (˜180-200 mg/dL) to simulate insulin-dependent blood glucose control in diabetes.

[4] = humans; cited from earlier work
[5] = pH recorded by microelectrode submerged in PA/GOx hydrogel samples; format: physicochemical; conditions: 24 h, began at pH 7.4
[6] = Oscillatory rheology of 1% w/v PA with GOx at various glucose concentrations; format: physicochemical; conditions: pH 7.4 start, 24 h
Protocol: The C10-V2A2E2 peptide amphiphile was first dissolved in DI water at a concentration of 2% (w/v). The solution was adjusted to pH 7.4 using 0.1 M HCl, and then mixed with an equal volume of 300 mM NaCl solution containing 440 U/mL GOx and different glucose concentration (0, 100, 200, 300, 400 mg/dL) to achieve final glucose concentrations of 0, 50, 100, 150, and 200 mg/dL and final peptide concentration of 1% (w/v).
(§1) Dynamic oscillatory rheology was performed on a TA Instruments Discovery HR-2 rheometer fitted with a Peltier stage using a parallel plate geometry with diameter of 25 mm to test the mechanical properties of all peptide hydrogels. Samples were prepared at a concentration of 1% (w/v) in buffers of different pH or glucose concentration, as described above, and measured 24 h after gel preparation. An amplitude sweep was first performed to determine the linear viscoelastic range for each hydrogel condition, and then a frequency sweep was performed at constant strain. Subsequently, a time-sweep (1% strain, 10 rad/s angular frequency) was performed for all hydrogels to measure and compare the storage modulus (G′).
After pH-dependent self-assembly and gelation was established, glucose-dependent gelation was explored through the inclusion of GOx to actuate glucose into a pH stimulus. One benefit of hydrogelation of this material at 1% w/v is the significant hydrated and interconnected porosity (FIG. 9A-D) to enable encapsulation of proteins like GOx to drive gelation in response to glucose. Samples of C10-V2A2E2 were prepared at 1% w/v in buffer at pH 7.4, with glucose added to achieve concentrations ranging from 0 to 200 mg/dL (0 to 11.1 mM). These ranges of glucose were selected to span typical physiological glucose levels in the healthy state and extend down to levels corresponding to hypoglycemia. Following equilibration for 24 h, samples were assessed grossly for gelation by vial inversion (FIG. 10A), as performed in pH-dependent gelation studies. […] The material prepared with 100 mg/dL glucose was very viscous but slowly flowed upon inversion, while those prepared at 0 mg/dL and 50 mg/dL were not self-supported on inversion.
Measurements were collected as before for gels prepared in each of the different glucose-containing buffers. The value of G′ increased with increasing levels of glucose, as follows: 10.2 Pa (0 mg/dL), 19.0 Pa (50 mg/dL), 29.5 Pa (100 mg/dL), 206.6 Pa (150 mg/dL), and 2.4 kPa (200 mg/dL). Given results of pH-dependent gelation for C10-V2A2E2 PA, it was expected that inclusion of GOx would actuate increased glucose level into a local reduction in pH driving hydrogelation. […] The fixed and finite glucose concentrations within these small volume hydrogels may somewhat limit direct comparisons with concentrations for their use in a physiological setting, as a replenishable glucose supply could further stiffen the materials through enhanced pH reduction.

[7] = Oscillatory rheology of 1% w/v PA samples in buffers of various pH; format: physicochemical; conditions: for storage modulus G′: 1% w/v, 1% strain, 10 rad/s
Protocol: The C10-V2A2E2 peptide (SEQ ID NO: 4) amphiphile was first dissolved in DI water at a concentration of 2% (w/v). The solution was adjusted to pH 7.4 using 0.1 M HCl, and then mixed with an equal volume of citrate-phosphate buffer (150 mM buffer+150 mM NaCl) at different pH (4, 5, 6, 7, 8) to form a gel at a concentration of 1% (w/v) in a final buffer concentration of 150 mM.
as §1
Vial inversion affords a crude means to inspect bulk differences in apparent hydrogelation. By contrast, rheological testing enables quantitative insights into the mechanical and dynamic properties of these materials. Oscillatory rheology was thus performed to quantify the observed pH-dependent differences in hydrogelation. Samples were first assessed with a strain sweep to determine the linear viscoelastic range, and then gel-forming samples were subjected to a frequency sweep to verify the range of oscillatory frequency rates wherein the storage modulus (G′) exceeded the viscous/loss modulus (G″).
The G′ values for samples at each pH were compared at a constant strain of 1% and frequency of 10 rad/s. When comparing G′ values across the full range of pH explored (n=2 gels/sample), pH-dependent mechanical properties were clearly evident (FIG. 4E, FIG. 7). […] Samples prepared at pH 8 had G′ measurements at the lower limit of instrument sensitivity.

Compound: glucagon
- half-life in circulation [1]: approximately 5 min

Compound: CCCCCCCCCCCCCCCC(=O)N[C@H](C(=O)N[C@@H](C)C(=O)N[C@@H](C)C(=O)N[C@@H](C)C(=O)N[C@@H](CCC(=O)O)C(=O)N[C@@H](CCC(=O)O)C(N)=O)C(C)C [C16—VA3E2] (Palmitoyl-VAAAEE-NH2)
- Δ Release % (pH 7-5 at 5 hr) [2]: 53.8%

Compound: CCCCCCCCCCCCCCCC(=O)N[C@H](C(=O)N[C@H](C(=O)N[C@@H](C)C(=O)N[C@@H](C)C(=O)N[C@@H](CCC(=O)O)C(=O)N[C@@H](CCC(=O)O)C(N)=O)C(C)C)C(C)C [C16—V2A2E2] (Palmitoyl-VVAAEE-NH2)
- Δ Release % (pH 7-5 at 5 hr) [2]: 43.6%

Compound: CCCCCCCCCCCCCCCC(=O)N[C@@H](C)C(=O)N[C@@H](C)C(=O)N[C@H](C(=O)N[C@H](C(=O)N[C@@H](CCC(=O)O)C(=O)N[C@@H](CCC(=O)O)C(N)=O)C(C)C)C(C)C [C16—A2V2E2] (Palmitoyl-AAVVEE-NH2)
- Δ Release % (pH 7-5 at 5 hr) [2]: 38.9%

Compound: dasiglucagon
- blood glucose relative to buffer control ([3]; 30 min after treatment, before insulin challenge): sharply increased
- blood glucose at endpoint of study ([3]; 300 min, 3 h after insulin challenge, n=9): 65.6 ± 10.8 mg/dL
- minimum (nadir) blood glucose ([3]; STZ mice, s.c. 0.01 mg dasiglucagon, insulin challenge at 2 h, n=9, SEM): 41.1 ± 5.0 mg/dL
- observations of death ([3]; after insulin overdose): 1 of 9

Compound: insulin detemir
- duration of action [4]: 18 to 20 h

Compound: CCCCCCCCCC(=O)N[C@H](C(=O)N[C@@H](C)C(=O)N[C@@H](C)C(=O)N[C@@H](C)C(=O)N[C@@H](CCC(=O)O)C(=O)N[C@@H](CCC(=O)O)C(N)=O)C(C)C [C10—VA3E2] (Decanoyl-VAAAEE-NH2)
- Δ Release % (pH 7-5 at 5 hr) [2]: 39.1%

Compound: CCCCCCCCCC(=O)N[C@H](C(=O)N[C@H](C(=O)N[C@@H](C)C(=O)N[C@@H](C)C(=O)N[C@@H](CCC(=O)O)C(=O)N[C@@H](CCC(=O)O)C(N)=O)C(C)C)C(C)C [C10—V2A2E2] (Decanoyl-VVAAEE-NH2)
- pH within hydrogel sample ([5]; 0 mg/dL glucose): 7.3
- pH within hydrogel sample ([5]; 200 mg/dL glucose): 5.5
- storage modulus G′ ([6]; 0 mg/dL glucose): 10.2 Pa
- storage modulus G′ ([6]; 50 mg/dL glucose): 19.0 Pa
- storage modulus G′ ([6]; 100 mg/dL glucose): 29.5 Pa
- storage modulus G′ ([6]; 150 mg/dL glucose): 206.6 Pa
- storage modulus G′ ([6]; 200 mg/dL glucose): 2.4 kPa
- Δ Release % (pH 7-5 at 5 hr) [2]: 62.6%
- critical strain ([7]; hydrogel in buffer at pH 5): ~55%
- strain range of linear behavior with G′>G″ ([7]; hydrogel in buffer at pH 5): 0.1-5%
- pKa ([7]; inferred from rheology, TEM, CD, FTIR, ThT, read-out: pKa of glutamic acid residues in the assembled structures): 5 to 6
- storage modulus G′ ([7]; pH 4): 6.2 kPa
- storage modulus G′ ([7]; pH 5): 5.1 kPa
- storage modulus G′ ([7]; pH 6): 53.7 Pa
- storage modulus G′ ([7]; pH 7): 4.3 Pa
- storage modulus G′ ([7]; pH 8): 1.2 Pa
